Measurements taken from US20230033195A1, “METHODS AND COMPOSITIONS FOR IMPROVING COGNITIVE FUNCTION” (THE JOHNS HOPKINS UNIVERSITY, priority 2011, published 2023).

Assays:
[1] = tested on: Age-Impaired (AI) Long-Evans rats; assay: Morris Water Maze (MWM) retention trial, spatial memory retention; assay type: in vivo, rat
Description: FIG. 2 depicts the effects of administering levetiracetam on the spatial memory retention of six aged-impaired rats (AI) in a Morris Water Maze (MWM) test. Three treatment conditions were employed: vehicle control, levetiracetam (5 mg/kg/day) and levetiracetam (10 mg/kg/day). The AI rats were trained for two consecutive days, with a one-time treatment prior to the training trials per day. 24 hours later, the AI rats were tested. The time the AI rats, 24 hours after treatment with the different conditions and two days of training, spent swimming in the target quadrant or the target annulus in a memory retention trial is used as a measure of spatial memory retention. The target quadrant refers to the quadrant of the maze (which is a circular pool) where the escape platform is placed during the training trials. The target annulus refers to the exact location of the escape platform during the training trials.
The MWM apparatus consists of a large, circular pool (diameter 1.83 m; height, 0.58 m) filled with water (27° C.) that is made opaque through the addition of non-toxic pigment or some other substance. In the typical "hidden platform" version of the test, rats are trained to find a camouflaged white escape platform (height, 34.5 cm) that is positioned in the center of one quadrant of the maze about 1.0 cm below the water surface. This platform can be retracted to the bottom of the tank or raised to its normal position from outside the maze during behavioral testing. The location of the platform remains constant from trial to trial. Because there are no local cues that mark the position of the platform, the rat's ability to locate it efficiently from any starting position at the perimeter of the pool depends on using information surrounding the maze. The maze is surrounded by black curtains to which white patterns are affixed to provide a configuration of spatial cues. A second platform (height 37.5 cm), with its surface painted black is elevated 2 cm above the water surface during cue training to control for factors unrelated to cognition. The behavior of a rat in the pool is recorded by a camera that is suspended 2.5 m above the center of the pool. The camera is connected to a video tracking system (HVS Image Advanced Tracker VP200) and a PC computer running HVS software developed by Richard Baker of HVS Image, Hampton, UK.
The MWM protocol is optimized for sensitivity to the effects of aging on cognition and for measures of reliable individual differences within the aged population of out-bred Long-Evans rats (Gallagher et al. Behav. Neurosci. 107:618-626, (1993)). […] At the completion of the protocol using the hidden platform, rats are assessed for cue learning using the visible platform. […]

aMCI subjects = assay: explicit 3-alternative forced choice task; assay type: in vivo, human; conditions: 125 mg twice a day for two weeks, vs placebo, p = 0.039
From the text: Each bar represents the proportion of the subjects responses (old, similar, or new) when presented with a lure image.
There are various tests known in the art for assessing cognitive function in humans, for example and without limitation, the clinical global impression of change scale (CIBIC-plus scale); the Mini Mental State Exam (MMSE); the Neuropsychiatric Inventory (NPI); the Clinical Dementia Rating Scale (CDR); the Cambridge Neuropsychological Test Automated Battery (CANTAB); the Sandoz Clinical Assessment-Geriatric (SCAG), the Buschke Selective Reminding Test (Buschke and Fuld, 1974); the Verbal Paired Associates subtest; the Logical Memory subtest; the Visual Reproduction subtest of the Wechsler Memory Scale-Revised (WMS-R) (Wechsler, 1997); or the Benton Visual Retention Test. See Folstein et al., J Psychiatric Res 12: 189-98, (1975); Robbins et al., Dementia 5: 266-81, (1994); Rey, L'examen clinique en psychologie, (1964); Kluger et al., J Geriatr Psychiatry Neurol 12:168-79, (1999); Marquis et al., 2002 and Masur et al., 1994. Another example of a cognitive test in humans is the explicit 3-alternative forced choice task. […]
The activity of the subject's medial temporal lobe is measured by functional MRI during the subject's participation in an explicit 3-alternative forced choice task, where participants view novel, repeated and similar ("lure") stimuli. […]

CC[C@@H](C(N)=O)N1CCCC1=O [levetiracetam, (2S)-2-(2-oxopyrrolidin-1-yl) butanamide]
performance (time in target quadrant) compared to vehicle ([1]; 5 mg/kg/day i.p., retention trial 24 h after training): did not significantly improve | time spent in the target annulus ([1]; 10 mg/kg/day i.p., retention trial): effectivness of the 10 mg/kg/day levetiracetam treatment was also seen | memory as compared to vehicle-treated controls (time in target quadrant) ([1]; 10 mg/kg/day i.p., retention trial 24 h after training): significantly improved memory | time spent in the target quadrant, percentage of total swimming time ([1]; 10 mg/kg/day i.p., retention trial 24 h after two training days): approximately 35% | performance in the explicit 3-alternative forced choice task (similar vs old responses to lures) (aMCI subjects): improves significantly
